Data published in ChEMBL document CHEMBL1201862, “PubChem BioAssay data set” (2004).
Activity calls are given as the source filed them.

Assays:
[1] = viability loss in THP-1 monocytes – THP-1 cells, cytotoxicity control for Vif-APOBEC3G degradation inhibitor project, dose response (AID 1117359); type: functional; conditions: THP-1
Nonstructural protein 1 = Nonstructural protein 1 (Influenza A virus, UniProt Q194T2); type: functional, Influenza A virus (A/California/07/2009(H1N1))
[2] = reduction of Shn3 3'UTR-driven luciferase in osteoblasts – cell-based, Clone20 osteoblasts, firefly luciferase, cherry-picked, dose response (AID 624132); type: functional;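 further: firefly luciferase luminescence from reporter carrying the Shn3 3'UTR in osteoblasts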
[3] = molecular target: Glutathione-S-transferase (Schistosoma japonicum, UniProt Q26513); experiment: GST-antibody interaction or FRET quenching – biochemical, TR-FRET, artefact control for Vif-APOBEC3G degradation inhibitor project, dose response (AID 1117362); type: functional
Vero = experiment: viability of Vero cells under compound – cytotoxicity control for flavivirus capping enzyme inhibitors (AID 588742); type: functional; conditions: Chlorocebus sabaeus
Beta-galactosidase = Beta-galactosidase (Escherichia coli, UniProt Q8VNN2); experiment: detection-enzyme interference by beta-gal modulators – biochemical, E. coli enzyme, set 3, artefact control for CCR6 antagonist project, dose response (AID 504712); type: functional
[4] = HGIII-sPLA2 enzyme inhibition potency – biochemical, QFRET, IC50, dose response (AID 743457);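 further: green fluorescence rise as the enzyme cleaves BODIPY PC-A2 in liposomes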
[5] = non-specific 3'UTR reporter inhibition in Clone20-Shn3RL – cell-based, Renilla luciferase, cherry-picked, counter-screen for Shn3 inhibitor project, dose response (AID 624133); type: functional
Genome polyprotein = Genome polyprotein (dengue virus type 2, UniProt P29990); experiment: flavivirus cap methylation enzyme inhibition – biochemical, confirmation dose response, primary screen (AID 588689); type: functional
[6] = loss of viability in HepG2 cells – cell-based, CellTiter-Glo, cherry-picked, cytotoxicity control for Shn3 inhibitor project, dose response (AID 624134); type: functional
[7] = molecular target: Glucose-6-phosphate 1-dehydrogenase (Homo sapiens, UniProt P11413); experiment: inhibition of Homo sapiens G6PD, dose series – biochemical, fluorescence, selectivity assay for P. falciparum G6PD inhibitor project, dose response (AID 504792); type: functional
[8] = molecular target: C-C chemokine receptor type 6 (Homo sapiens, UniProt P51684); experiment: antagonism of CCR6 beta-arrestin recruitment – cell-based, luminescent beta-arrestin readout, dose response (AID 504728); type: functional
HeLa = experiment: viability loss in HeLa cells – cell-based, 24 h, cherry-picked samples, cytotoxicity control, dose response (AID 504726); type: functional; conditions: Homo sapiens;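 further: potency for cytotoxicity as loss of luminescence signal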
[9] = molecular target: T1, Corticotropin-releasing factor receptor 2/Corticotropin-releasing factor-binding protein (Homo sapiens, UniProt P24387+Q13324); experiment: activators of CRF receptor 2 with binding protein – uHTS hits, confirmation (AID 602473); type: functional; conditions: read-out: EC50_Mean
T1 sequence (Q13324 whole entry): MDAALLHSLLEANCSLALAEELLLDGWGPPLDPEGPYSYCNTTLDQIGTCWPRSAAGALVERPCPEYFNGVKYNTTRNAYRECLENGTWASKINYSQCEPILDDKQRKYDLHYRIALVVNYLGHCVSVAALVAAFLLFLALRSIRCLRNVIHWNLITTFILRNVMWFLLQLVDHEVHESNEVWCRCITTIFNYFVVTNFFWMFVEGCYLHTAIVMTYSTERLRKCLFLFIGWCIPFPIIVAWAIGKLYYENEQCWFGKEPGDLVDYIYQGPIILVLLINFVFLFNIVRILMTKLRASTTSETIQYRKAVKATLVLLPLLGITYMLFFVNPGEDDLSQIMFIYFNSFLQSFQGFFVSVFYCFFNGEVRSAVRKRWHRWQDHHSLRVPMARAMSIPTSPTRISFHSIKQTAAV
T1 sequence (P24387 whole entry): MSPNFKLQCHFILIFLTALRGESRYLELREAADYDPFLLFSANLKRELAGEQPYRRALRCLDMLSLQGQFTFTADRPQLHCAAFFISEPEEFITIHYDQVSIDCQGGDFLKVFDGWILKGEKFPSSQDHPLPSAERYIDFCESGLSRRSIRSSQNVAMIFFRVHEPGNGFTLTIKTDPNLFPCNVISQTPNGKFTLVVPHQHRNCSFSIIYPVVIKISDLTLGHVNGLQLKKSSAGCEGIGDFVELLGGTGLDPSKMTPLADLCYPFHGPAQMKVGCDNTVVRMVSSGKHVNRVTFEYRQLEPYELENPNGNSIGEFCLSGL

[10] = molecular target: T2, Short transient receptor potential channel 4 (Mus musculus, UniProt Q9QUQ5); experiment: block of DAMGO-driven TRPC4 calcium entry – cell-based, HEK293 TRPC4/mu-opioid, Fluo-4 calcium, dose response (AID 434942); type: functional;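 further: potency of inhibitors blocking the TRPC4 calcium response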
T2 sequence (Q9QUQ5 whole entry): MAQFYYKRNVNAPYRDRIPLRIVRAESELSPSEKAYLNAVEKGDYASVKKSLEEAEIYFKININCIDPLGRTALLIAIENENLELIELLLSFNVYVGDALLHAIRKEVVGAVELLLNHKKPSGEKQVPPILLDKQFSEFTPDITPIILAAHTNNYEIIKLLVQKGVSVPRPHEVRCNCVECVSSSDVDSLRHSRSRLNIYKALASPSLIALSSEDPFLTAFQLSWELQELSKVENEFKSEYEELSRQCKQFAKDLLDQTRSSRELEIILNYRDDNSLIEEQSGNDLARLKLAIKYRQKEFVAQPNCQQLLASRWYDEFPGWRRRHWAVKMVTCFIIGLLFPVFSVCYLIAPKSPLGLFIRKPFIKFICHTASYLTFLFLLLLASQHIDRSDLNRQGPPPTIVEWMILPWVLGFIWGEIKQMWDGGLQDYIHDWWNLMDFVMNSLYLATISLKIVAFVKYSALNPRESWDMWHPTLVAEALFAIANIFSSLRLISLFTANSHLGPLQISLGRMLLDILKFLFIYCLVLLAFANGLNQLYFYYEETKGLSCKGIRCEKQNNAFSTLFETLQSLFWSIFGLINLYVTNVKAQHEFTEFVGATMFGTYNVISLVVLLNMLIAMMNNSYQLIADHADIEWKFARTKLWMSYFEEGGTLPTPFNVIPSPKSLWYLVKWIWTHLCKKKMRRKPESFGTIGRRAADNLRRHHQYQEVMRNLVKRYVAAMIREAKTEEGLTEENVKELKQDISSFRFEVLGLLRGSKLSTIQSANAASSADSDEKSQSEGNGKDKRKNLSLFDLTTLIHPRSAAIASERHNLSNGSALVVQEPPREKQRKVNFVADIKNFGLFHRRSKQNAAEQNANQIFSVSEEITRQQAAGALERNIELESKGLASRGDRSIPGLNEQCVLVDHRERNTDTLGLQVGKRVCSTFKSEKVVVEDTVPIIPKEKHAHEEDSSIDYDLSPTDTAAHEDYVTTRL

[11] = Luminescence-based counterscreen assay for KLF5 inhibitors: dose response cell-based high throughput screening assay to identify cytotoxic compounds using the IEC-6 intestinal epithelial cell line. [Related pubchem assays: 1700 (Primary screen.), 1834 (Confirmation screen.), 1858 (Summary AID.), 1905 (Counterscreen.)]; type: functional
HT-1080 = experiment: HT1080 cell viability loss – fluorescence readout (AID 620); type: functional, cell-based; conditions: Homo sapiens
[12] = molecular target: T3, Heat shock factor protein 1 (Mus musculus, UniProt P38532); experiment: decrease of HSF1-responsive luciferase luminescence – cell-based, NIH3T3, dose retest, confirmation (AID 2382); type: functional;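 further: NIH3T3 fibroblasts with HSF1-driven luciferase reporter stressed by proteasome inhibitor MG132; luminescence from HSF1-driven luciferase expression after 8 hours of MG132 stress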
T3 sequence (P38532 whole entry): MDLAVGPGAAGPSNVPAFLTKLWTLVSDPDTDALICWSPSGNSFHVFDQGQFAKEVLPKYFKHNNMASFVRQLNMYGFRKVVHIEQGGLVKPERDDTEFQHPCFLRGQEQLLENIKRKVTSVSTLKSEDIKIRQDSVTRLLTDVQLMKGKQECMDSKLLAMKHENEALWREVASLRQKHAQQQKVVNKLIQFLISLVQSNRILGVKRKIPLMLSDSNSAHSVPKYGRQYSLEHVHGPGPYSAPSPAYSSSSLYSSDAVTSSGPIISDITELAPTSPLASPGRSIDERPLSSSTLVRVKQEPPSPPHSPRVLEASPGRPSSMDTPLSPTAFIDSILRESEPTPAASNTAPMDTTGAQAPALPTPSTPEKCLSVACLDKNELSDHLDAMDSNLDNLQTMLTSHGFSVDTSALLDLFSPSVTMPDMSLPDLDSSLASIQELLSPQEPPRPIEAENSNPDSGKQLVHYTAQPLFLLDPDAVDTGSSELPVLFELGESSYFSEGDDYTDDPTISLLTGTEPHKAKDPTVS

[13] = molecular target: Luciferin 4-monooxygenase (Photinus pyralis, UniProt P08659); experiment: Counter Screen for Luciferase-based Assay Positives. [Related pubchem assays: 620, 618, 411 ]
X-box-binding protein 1 = X-box-binding protein 1 (Homo sapiens, UniProt P17861); type: functional, Cricetulus griseus;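 further: confirmatory dose-response counter-screen serving a CHOP assay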
BJ [14] = experiment: cells; type: functional, cell-based; conditions: Homo sapiens
INS1 = experiment: INS-1E survival protection against cytokine death – cell-based, luminescence, retest, dose response (AID 449756); type: functional; conditions: Rattus norvegicus;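 further: cell death triggered by IL-1 beta plus TNF-alpha plus IFN-gamma mixture; protective hits raise ATP signal compared with cytokine alone wells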
[15] = DRD fibroblast viability loss – cell-based, non-viral oncogenic, luminescence, dose response (AID 1934); type: functional; conditions: Homo sapiens
BJ [16] = experiment: BJ-TERT fibroblast viability loss – cell-based, RAS-independent, luminescence, dose response (AID 1933); type: functional; conditions: Homo sapiens
BJ [17] = experiment: BJ-TERT-LT-ST fibroblast viability loss – cell-based, RAS-independent, luminescence, dose response (AID 1935); type: functional; conditions: Homo sapiens;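 further: BJ fibroblasts immortalized with TERT plus LT and ST oncogenes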
[18] = A Cell Based Secondary Assay To Explore Cytotoxicity of Compounds that Sensitize Mycobacterium Tuberculosis to Beta-Lactam Antibiotics.; type: functional

Sequence of Luciferin 4-monooxygenase (P08659 whole entry): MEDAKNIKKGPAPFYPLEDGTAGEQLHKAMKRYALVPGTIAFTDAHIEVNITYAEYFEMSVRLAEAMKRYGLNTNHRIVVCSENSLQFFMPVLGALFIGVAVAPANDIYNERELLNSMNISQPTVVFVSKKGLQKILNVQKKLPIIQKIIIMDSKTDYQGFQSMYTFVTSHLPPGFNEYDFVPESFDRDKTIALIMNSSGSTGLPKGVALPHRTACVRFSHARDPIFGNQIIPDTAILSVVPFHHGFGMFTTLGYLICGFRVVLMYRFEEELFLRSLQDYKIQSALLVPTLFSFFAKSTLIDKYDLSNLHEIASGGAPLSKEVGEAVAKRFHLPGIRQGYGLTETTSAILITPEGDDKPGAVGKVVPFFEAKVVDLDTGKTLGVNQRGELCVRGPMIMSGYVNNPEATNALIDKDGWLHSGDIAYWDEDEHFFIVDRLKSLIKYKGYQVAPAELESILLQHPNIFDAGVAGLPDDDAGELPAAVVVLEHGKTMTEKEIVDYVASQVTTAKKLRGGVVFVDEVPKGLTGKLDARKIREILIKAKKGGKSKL
Sequence of Beta-galactosidase (Q8VNN2 whole entry): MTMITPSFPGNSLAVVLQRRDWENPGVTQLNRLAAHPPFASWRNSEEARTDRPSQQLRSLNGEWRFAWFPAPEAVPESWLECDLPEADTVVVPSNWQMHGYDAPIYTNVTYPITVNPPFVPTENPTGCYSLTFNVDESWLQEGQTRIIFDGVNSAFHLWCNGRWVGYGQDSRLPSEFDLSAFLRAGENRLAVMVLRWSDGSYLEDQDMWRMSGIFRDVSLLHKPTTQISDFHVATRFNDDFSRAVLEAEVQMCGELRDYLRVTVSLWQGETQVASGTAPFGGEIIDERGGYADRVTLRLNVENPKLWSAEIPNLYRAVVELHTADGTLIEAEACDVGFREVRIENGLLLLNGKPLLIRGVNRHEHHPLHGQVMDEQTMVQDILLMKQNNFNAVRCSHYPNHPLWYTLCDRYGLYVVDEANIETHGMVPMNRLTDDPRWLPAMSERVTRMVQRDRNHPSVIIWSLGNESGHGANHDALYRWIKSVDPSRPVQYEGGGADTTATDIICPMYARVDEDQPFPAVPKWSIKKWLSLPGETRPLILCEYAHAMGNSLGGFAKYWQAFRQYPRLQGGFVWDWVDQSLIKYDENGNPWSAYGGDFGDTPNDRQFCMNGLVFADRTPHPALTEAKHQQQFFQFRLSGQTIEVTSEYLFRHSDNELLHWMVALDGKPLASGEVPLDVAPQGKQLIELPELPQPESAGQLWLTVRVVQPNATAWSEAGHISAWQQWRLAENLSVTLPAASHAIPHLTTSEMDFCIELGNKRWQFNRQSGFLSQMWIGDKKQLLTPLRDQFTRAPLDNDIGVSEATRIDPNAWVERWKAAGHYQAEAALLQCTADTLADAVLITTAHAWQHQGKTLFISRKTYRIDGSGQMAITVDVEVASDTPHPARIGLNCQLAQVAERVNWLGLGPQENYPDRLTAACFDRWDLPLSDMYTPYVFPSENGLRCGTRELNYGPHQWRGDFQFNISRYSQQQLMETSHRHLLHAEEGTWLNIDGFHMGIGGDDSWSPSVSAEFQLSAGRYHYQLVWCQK
Sequence of X-box-binding protein 1 (P17861 whole entry): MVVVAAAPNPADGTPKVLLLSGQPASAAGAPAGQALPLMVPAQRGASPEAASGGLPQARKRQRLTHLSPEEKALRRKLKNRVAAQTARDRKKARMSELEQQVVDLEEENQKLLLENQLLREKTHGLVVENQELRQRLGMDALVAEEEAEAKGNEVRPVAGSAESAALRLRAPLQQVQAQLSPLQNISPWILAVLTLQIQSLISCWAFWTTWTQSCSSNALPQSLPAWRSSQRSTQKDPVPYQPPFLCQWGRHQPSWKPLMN
Sequence of Genome polyprotein (P29990 2492-3391 limits assumed): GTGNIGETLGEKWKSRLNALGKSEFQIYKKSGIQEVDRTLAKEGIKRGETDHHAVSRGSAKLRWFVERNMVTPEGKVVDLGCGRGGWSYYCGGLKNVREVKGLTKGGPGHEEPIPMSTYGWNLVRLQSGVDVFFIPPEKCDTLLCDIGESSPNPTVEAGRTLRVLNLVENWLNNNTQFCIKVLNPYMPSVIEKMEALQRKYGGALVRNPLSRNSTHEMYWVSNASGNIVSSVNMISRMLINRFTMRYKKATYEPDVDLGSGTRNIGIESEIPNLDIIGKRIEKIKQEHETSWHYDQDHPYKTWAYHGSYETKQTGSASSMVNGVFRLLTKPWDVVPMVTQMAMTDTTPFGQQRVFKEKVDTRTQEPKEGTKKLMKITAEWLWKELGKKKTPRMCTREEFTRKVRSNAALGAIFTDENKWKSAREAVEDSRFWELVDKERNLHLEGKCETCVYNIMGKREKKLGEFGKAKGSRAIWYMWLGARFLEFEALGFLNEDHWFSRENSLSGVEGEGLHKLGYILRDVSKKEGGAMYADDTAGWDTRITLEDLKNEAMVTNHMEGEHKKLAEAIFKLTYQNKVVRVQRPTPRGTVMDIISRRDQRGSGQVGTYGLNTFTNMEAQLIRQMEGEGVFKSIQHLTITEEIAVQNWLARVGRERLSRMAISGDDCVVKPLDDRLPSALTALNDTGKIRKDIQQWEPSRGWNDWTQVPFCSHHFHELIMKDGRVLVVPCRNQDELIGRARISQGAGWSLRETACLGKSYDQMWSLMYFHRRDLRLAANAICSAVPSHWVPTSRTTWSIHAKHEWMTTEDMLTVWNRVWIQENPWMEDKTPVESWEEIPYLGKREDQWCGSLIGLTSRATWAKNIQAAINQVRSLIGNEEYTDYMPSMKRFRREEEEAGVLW
Sequence of Glucose-6-phosphate 1-dehydrogenase (P11413 whole entry): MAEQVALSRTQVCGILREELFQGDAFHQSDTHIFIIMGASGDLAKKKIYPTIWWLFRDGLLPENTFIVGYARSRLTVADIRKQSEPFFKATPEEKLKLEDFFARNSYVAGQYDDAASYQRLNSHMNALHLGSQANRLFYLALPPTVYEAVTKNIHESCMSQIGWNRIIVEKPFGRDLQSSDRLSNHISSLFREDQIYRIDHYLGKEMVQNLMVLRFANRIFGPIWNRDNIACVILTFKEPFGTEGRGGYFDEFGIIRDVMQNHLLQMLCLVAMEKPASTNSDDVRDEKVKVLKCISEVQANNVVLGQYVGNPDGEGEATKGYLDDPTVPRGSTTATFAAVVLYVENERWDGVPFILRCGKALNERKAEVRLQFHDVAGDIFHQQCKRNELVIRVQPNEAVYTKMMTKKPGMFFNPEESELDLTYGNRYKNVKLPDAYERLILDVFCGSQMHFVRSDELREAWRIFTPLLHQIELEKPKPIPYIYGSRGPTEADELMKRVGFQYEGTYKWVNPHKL
Sequence of Glutathione-S-transferase (Q26513 whole entry): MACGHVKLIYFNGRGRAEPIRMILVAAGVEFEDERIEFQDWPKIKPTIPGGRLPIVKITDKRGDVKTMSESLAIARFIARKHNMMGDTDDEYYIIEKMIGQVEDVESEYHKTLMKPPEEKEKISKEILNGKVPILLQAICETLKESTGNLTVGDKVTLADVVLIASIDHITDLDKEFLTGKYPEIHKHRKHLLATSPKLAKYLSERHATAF
Sequence of Nonstructural protein 1 (Q194T2 whole entry): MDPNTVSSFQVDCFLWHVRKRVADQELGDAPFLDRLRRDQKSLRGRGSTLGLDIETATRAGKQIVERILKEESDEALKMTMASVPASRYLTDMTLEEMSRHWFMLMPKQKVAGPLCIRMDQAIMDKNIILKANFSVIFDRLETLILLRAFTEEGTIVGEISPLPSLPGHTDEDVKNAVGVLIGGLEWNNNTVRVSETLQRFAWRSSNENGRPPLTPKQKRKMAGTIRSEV
Sequence of C-C chemokine receptor type 6 (P51684 whole entry): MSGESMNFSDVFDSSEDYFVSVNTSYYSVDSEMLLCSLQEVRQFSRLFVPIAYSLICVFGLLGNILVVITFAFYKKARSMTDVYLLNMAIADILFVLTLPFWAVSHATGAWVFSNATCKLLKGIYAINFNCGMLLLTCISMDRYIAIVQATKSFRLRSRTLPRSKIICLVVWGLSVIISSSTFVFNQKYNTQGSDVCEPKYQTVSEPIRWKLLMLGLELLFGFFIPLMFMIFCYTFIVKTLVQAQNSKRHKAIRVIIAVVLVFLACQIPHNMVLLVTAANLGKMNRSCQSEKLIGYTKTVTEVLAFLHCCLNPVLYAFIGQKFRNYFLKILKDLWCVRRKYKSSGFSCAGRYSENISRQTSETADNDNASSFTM

CN(C)c1ccc(/C=c2\c3cc([N+](=O)[O-])ccc3n3c2cc(-c2ccccc2)[n+]3C)cc1
CC50 [1]: 1.48 µM (active)
IC50 (Nonstructural protein 1): 4.31 µM (active)
AC50 [2]: 3.3 µM (active)
IC50 [3]: 5.79 µM (active)
CC50 (Vero): 34.8 µM (active)
IC50 (Beta-galactosidase): > 66.6 µM (inactive)
IC50 [4]: 6.13 µM (active)
AC50 [5]: 5.6 µM (active)
IC50 (Genome polyprotein): 11.8 µM (active)
AC50 [6]: 14.6 µM (active)
IC50 [7]: 28.3 µM (inactive)
IC50 [8]: 31.9 µM (inactive)

N=c1ccn(Cc2ccc(Cl)cc2)cc1
AC50 (HeLa): 16.4 µM (active)

O=C(c1ccc2c(c1)OCO2)C1CCCN(Cc2cc(F)ccc2-n2cccn2)C1 (centres undefined)
EC50 [9]: > 53 µM (inactive)
EC50 [10]: 5.96 µM (active)

O=C(CCCc1ccccc1)c1ccc2c(c1)OCCO2
IC50 [11]: > 39.8 µM (not active)
EC50 (HT-1080): > 50 µM (not active)
EC50 [12]: < 0.16 µM (active)
EC50 [13]: < 0.2 µM (active)

Cc1c(C(=O)NC2=NCCS2)oc2ccccc12
EC50 (HT-1080): > 50 µM (not active)
EC50 [13]: 2.67 µM (active)

COc1cc(-c2nc3c(c(C)nn3-c3ccccc3)c3cc(OC)c(OC)cc23)ccc1O
Absolute IC50 (XBP1) (X-box-binding protein 1): 10 µM

COc1nc(Nc2nc(O)c3ccccc3n2)nc2ccc(C)cc12
EC50 (BJ [14]): 2.93 µM (active)
AC50 (INS1): 1.31 µM (active)
EC50 [15]: 2.3 µM (active)
EC50 (BJ [16]): 2.6 µM (active)
EC50 (BJ [17]): 2.88 µM (inconclusive)
CC50 [18]: 3.83 µM (active)

Cc1ccc(-c2[nH]c3ccccc3c2SCCN)cc1
EC50 [10]: 4.73 µM (active)
